Assay results published in ChEMBL document CHEMBL2401638, “Design and synthesis of biquinolone-isoniazid hybrids as a new class of antitubercular and antimicrobial agents” (Eur J Med Chem, 2013).
Values after ≈ are worked out from the molar mass of the structure shown.

How the values were obtained:
[1] = test system: Clostridium tetani; assay: Antibacterial activity against Clostridium tetani MTCC 449 assessed as growth inhibition by broth microdilution method; assay type: functional
[2] = test system: Mycobacterium tuberculosis; assay: Antituberculosis activity against Mycobacterium tuberculosis H37Rv assessed as growth inhibition at 250 ug/ml after 12 to 28 days by Lowenstein-Jensen method relative to control; assay type: functional; conditions: read-out: GI
[3] = test system: Salmonella typhi; assay: Antibacterial activity against Salmonella typhi MTCC 98 assessed as growth inhibition by broth microdilution method; assay type: functional, Salmonella enterica subsp. enterica serovar Typhi; conditions: Salmonella enterica
[4] = test system: Staphylococcus aureus; assay: Antibacterial activity against Staphylococcus aureus MTCC 96 assessed as growth inhibition by broth microdilution method; assay type: functional
[5] = test system: Candida albicans; assay: Antifungal activity against Candida albicans MTCC 227 assessed as growth inhibition by broth microdilution method; assay type: functional
[6] = test system: Bacillus subtilis; assay: Antibacterial activity against Bacillus subtilis MTCC 441 assessed as growth inhibition by broth microdilution method; assay type: functional
[7] = test system: Pseudomonas aeruginosa; assay: Antibacterial activity against Pseudomonas aeruginosa MTCC 1688 assessed as growth inhibition by broth microdilution method; assay type: functional
[8] = test system: Escherichia coli; assay: Antibacterial activity against Escherichia coli MTCC 443 assessed as growth inhibition by broth microdilution method; assay type: functional
[9] = test system: Trichophyton rubrum; assay: Antifungal activity against Trichophyton rubrum MTCC 296 assessed as growth inhibition by broth microdilution method; assay type: functional
[10] = Cytotoxicity in Artemia cysts assessed as mortality of nauplii at 20 ug/mL after 24 hrs relative to control; assay type: organism-based; conditions: in vivo
[11] = Cytotoxicity in Artemia cysts assessed as mortality of nauplii after 24 hrs; assay type: organism-based; conditions: in vivo
[12] = Cytotoxicity in Artemia cysts assessed as mortality of nauplii at 10 ug/mL after 24 hrs relative to control; assay type: organism-based; conditions: in vivo
[13] = Cytotoxicity in Artemia cysts assessed as mortality of nauplii at 50 ug/mL after 24 hrs relative to control; assay type: organism-based; conditions: in vivo
[14] = Cytotoxicity in Artemia cysts assessed as mortality of nauplii at 40 ug/mL after 24 hrs relative to control; assay type: organism-based; conditions: in vivo
[15] = Cytotoxicity in Artemia cysts assessed as mortality of nauplii at 30 ug/mL after 24 hrs relative to control; assay type: organism-based; conditions: in vivo
[16] = Cytotoxicity in Artemia cysts assessed as mortality of nauplii at 5 ug/mL after 24 hrs relative to control; assay type: organism-based; conditions: in vivo
[17] = test system: Mycobacterium tuberculosis; assay: Antituberculosis activity against Mycobacterium tuberculosis H37Rv assessed as growth inhibition after 12 to 28 days by Lowenstein-Jensen method; assay type: functional

Compound	MIC [1] [mg/L]	inhibition of growth at 250 µg/mL [2] [%]	MIC [3] [mg/L]	MIC [4] [mg/L]	MIC [5] [mg/L]	MIC [6] [mg/L]	MIC [7] [mg/L]	MIC [8] [mg/L]	MIC [9] [mg/L]	mortality at 24 h, 20 ug/mL [10] [%]	LC50 at 24 h [11] [mg/L]	mortality at 24 h, 10 ug/mL [12] [%]	mortality at 24 h, 50 ug/mL [13] [%]	mortality at 24 h, 40 ug/mL [14] [%]	mortality at 24 h, 30 ug/mL [15] [%]	mortality at 24 h, 5 ug/mL [16] [%]	MIC [17] [mg/L]
C=CCn1c(=O)c(C2C(C(=O)OC)=C(N)N(NC(=O)c3ccncc3)C3=C2C(=O)CCC3)cc2cc(C)ccc21 (stereo not drawn)	500	58	250	500	500	62.5	100	500	> 1000								
NYSTATIN					100				100								
O=C(O)c1cn(C2CC2)c2cc(N3CCNCC3)c(F)cc2c1=O [CIPROFLOXACIN]			25	50				25									
C=CCn1c(=O)c(C2C(C(=O)OCC)=C(N)N(NC(=O)c3ccncc3)C3=C2C(=O)CC(C)(C)C3)cc2ccccc21 (stereo not drawn)	500	84	100	250	250	500	500	50	500								
C=CCn1c(=O)c(C2C(C(=O)OCC)=C(N)N(NC(=O)c3ccncc3)C3=C2C(=O)CC(C)(C)C3)cc2cc(Cl)ccc21 (stereo not drawn)	250	56	200	250	1000	200	100	200	500								
C=CCn1c(=O)c(C2C(C(=O)OC(C)C)=C(N)N(NC(=O)c3ccncc3)C3=C2C(=O)CC(C)(C)C3)cc2cc(Cl)ccc21 (stereo not drawn)	125	94	125	125	1000	500	500	200	500	30	24.5 (≈ 39.7 µM)	10	90	70	50	0	62.5 (≈ 101 µM)
C=CCn1c(=O)c(C2C(C(=O)OC(C)C)=C(N)N(NC(=O)c3ccncc3)C3=C2C(=O)CC(C)(C)C3)cc2ccccc21 (stereo not drawn)	500	78	25	500	1000	500	250	200	250								
O=C(N[C@H](CO)[C@H](O)c1ccc([N+](=O)[O-])cc1)C(Cl)Cl [CHLORAMPHENICOL]	50		50	50		50	50	50									
C=CCn1c(=O)c(C2C(C(=O)OC(C)C)=C(N)N(NC(=O)c3ccncc3)C3=C2C(=O)CCC3)cc2ccccc21 (stereo not drawn)	500	65	125	500	1000	250	500	100	500								
C=CCn1c(=O)c(C2C(C(=O)OCC)=C(N)N(NC(=O)c3ccncc3)C3=C2C(=O)CCC3)cc2ccccc21 (stereo not drawn)	250	51	250	250	500	500	500	500	> 1000								
C=CCn1c(=O)c(C2C(C(=O)OCC)=C(N)N(NC(=O)c3ccncc3)C3=C2C(=O)CCC3)cc2cc(C)ccc21 (stereo not drawn)	62.5	23	500	100	500	250	250	500	100								
C=CCn1c(=O)c(C2C(C(=O)OC(C)C)=C(N)N(NC(=O)c3ccncc3)C3=C2C(=O)CC(C)(C)C3)cc2cc(OC)ccc21 (stereo not drawn)	500	74	250	500	1000	250	250	200	500								
C=CCn1c(=O)c(C2C(C(=O)OCC)=C(N)N(NC(=O)c3ccncc3)C3=C2C(=O)CCC3)cc2cc(Cl)ccc21 (stereo not drawn)	125	87	250	100	250	250	500	100	1000								
CCn1cc(C(=O)O)c(=O)c2cc(F)c(N3CCNCC3)cc21 [NORFLOXACIN]	50		10	10		100	10	10									
C=CCn1c(=O)c(C2C(C(=O)OC)=C(N)N(NC(=O)c3ccncc3)C3=C2C(=O)CC(C)(C)C3)cc2ccccc21 (stereo not drawn)	200	74	200	200	250	125	125	200	> 1000								
C=CCn1c(=O)c(C2C(C(=O)OC)=C(N)N(NC(=O)c3ccncc3)C3=C2C(=O)CCC3)cc2ccccc21 (stereo not drawn)	125	74	250	125	500	100	50	500	500								
CO[C@H]1/C=C/O[C@@]2(C)Oc3c(C)c(O)c4c(O)c(c(/C=N/N5CCN(C)CC5)c(O)c4c3C2=O)NC(=O)/C(C)=C\C=C\[C@H](C)[C@H](O)[C@@H](C)[C@@H](O)[C@@H](C)[C@H](OC(C)=O)[C@@H]1C [RIFAMPIN]		98															40 (≈ 48.6 µM)
COC1=CC(=O)C[C@@H](C)[C@]12Oc1c(Cl)c(OC)cc(OC)c1C2=O [GRISEOFULVIN]					500				100								
C=CCn1c(=O)c(C2C(C(=O)OC)=C(N)N(NC(=O)c3ccncc3)C3=C2C(=O)CC(C)(C)C3)cc2cc(OC)ccc21 (stereo not drawn)	200	45	200	250	1000	250	250	200	500								
C=CCn1c(=O)c(C2C(C(=O)OC(C)C)=C(N)N(NC(=O)c3ccncc3)C3=C2C(=O)CCC3)cc2cc(Cl)ccc21 (stereo not drawn)	200	89	500	200	500	200	200	250	500								
C=CCn1c(=O)c(C2C(C(=O)OC)=C(N)N(NC(=O)c3ccncc3)C3=C2C(=O)CC(C)(C)C3)cc2cc(Cl)ccc21 (stereo not drawn)	100	87	200	200	500	500	500	250	1000								
C=CCn1c(=O)c(C2C(C(=O)OCC)=C(N)N(NC(=O)c3ccncc3)C3=C2C(=O)CCC3)cc2cc(OC)ccc21 (stereo not drawn)	100	54	500	125	250	200	200	250	1000								
NNC(=O)c1ccncc1 [ISONIAZID]		99															0.2 (≈ 1.46 µM)
C=CCn1c(=O)c(C2C(C(=O)OC(C)C)=C(N)N(NC(=O)c3ccncc3)C3=C2C(=O)CCC3)cc2cc(OC)ccc21 (stereo not drawn)	250	27	250	250	250	250	250	200	1000								
CC1(C)S[C@@H]2[C@H](NC(=O)[C@H](N)c3ccccc3)C(=O)N2[C@H]1C(=O)O [AMPICILLIN]	250		100	250		250		100									
COc1cc([C@@H]2c3cc4c(cc3[C@@H](O[C@@H]3O[C@@H]5CO[C@@H](C)O[C@H]5[C@H](O)[C@H]3O)[C@H]3COC(=O)[C@H]23)OCO4)cc(OC)c1O [ETOPOSIDE]											7.46 (≈ 12.7 µM)						
C=CCn1c(=O)c(C2C(C(=O)OC)=C(N)N(NC(=O)c3ccncc3)C3=C2C(=O)CCC3)cc2cc(Cl)ccc21 (stereo not drawn)	200	89	200	250	1000	500	500	250	1000								
C=CCn1c(=O)c(C2C(C(=O)OC(C)C)=C(N)N(NC(=O)c3ccncc3)C3=C2C(=O)CCC3)cc2cc(C)ccc21 (stereo not drawn)	500	22	200	500	1000	500	500	250	1000								
